EP0377044B1, “PROTECTIVE AGENT FOR RADIATION HAZARD” (MITSUI TOATSU CHEMICALS, Inc., priority 1988, dated 1989)
Square brackets hold non-standard residues; d marks the D form. Peptide text beside a SMILES is read from it. pGlu = O=C1CC[C@@H](C(=O)O)N1

Legend:
[1] = tested on: mice irradiated with 600R X-rays; experiment: Survival of mice after whole body irradiation with 600R X-rays; assay type: in vivo
Method: Male, 10 week-old C3H/He mice were used and groups of 10 - 15 animals each were prepared.
The mice were subjected to whole body irradiation for 8 minutes using a X-radiation unit (manufactured by Shimazu Seisaku-sho, Shin-Ai 250 II). These animals received, once per day, subcutaneous administration of 100 µg of FTS·CH₃COOH·2H₂O as used in Example 1 for consecutive 14 days. For a pre-administered group, the administration started two days before the irradiation. For a post-administered group, the first administration was effected immediately after the irradiation. As control groups, one group which received only once subcutaneous administration of 1 KE of Picibanil immediately after the irradiation and another group which received every day administration of physiological saline were prepared.
(§1) In the same manner as in Experimental Examples 1 and 2, mice were irradiated with X-rays for 6 minutes. For a period of consecutive 14 days from 2 days before irradiation, the animals were subcutaneously administered, once a day, with 100 µg/day of FTS·CH₃COOH·2H₂O as medicament.

[2] = Body weight measurement of 600R-irradiated mice; assay type: in vivo; conditions: for body weight (g) [Mean ± S.D.]: 600R X-ray, 100 µg/day s.c. pre-administration
Method: as §1
The body weight of each experimental group of mice in Experimental Example 3 was measured on consecutive days for observation of changes in weight.

Which animals survived ([1]; in 19 days, 100 µg/day s.c. 14 days from 2 days before irradiation, control four out of ten) does the source give for `C[C@H](NC(=O)[C@@H]1CCC(=O)N1)C(=O)N[C@@H](CCCCN)C(=O)N[C@@H](CO)C(=O)N[C@@H](CCC(N)=O)C(=O)NCC(=O)NCC(=O)N[C@@H](CO)C(=O)N[C@@H](CC(N)=O)C(=O)O` [medicament, pGlu-Ala-Lys-Ser-Gln-Gly-Gly-Ser-Asn] ([pGlu]AKSQGGSN-OH) here?
Its animals survived is “ten out of ten”.

And the “The number of days and survivals after X-radiation 8 (days)” value ([1]; pre-administration 100 µg/day s.c., 14 days from 2 days before irradiation, day 8, 10 animals used)?
The value was 10.

What about the “The number of days and survivals after X-radiation 9 (days)” value ([1]; pre-administration 100 µg/day s.c., 14 days from 2 days before irradiation, day 9, 10 animals used) of the same molecule?
The value was 10.

What about the “The number of days and survivals after X-radiation 10 (days)” value ([1]; pre-administration 100 µg/day s.c., 14 days from 2 days before irradiation, day 10, 10 animals used) of the same molecule?
Its value is 10.

What about the “The number of days and survivals after X-radiation 11 (days)” value ([1]; pre-administration 100 µg/day s.c., 14 days from 2 days before irradiation, day 11, 10 animals used) of the same molecule?
Its value is 10.

And the “The number of days and survivals after X-radiation 12 (days)” value ([1]; pre-administration 100 µg/day s.c., 14 days from 2 days before irradiation, day 12, 10 animals used)?
Its value is 10.

And the “The number of days and survivals after X-radiation 13 (days)” value ([1]; pre-administration 100 µg/day s.c., 14 days from 2 days before irradiation, day 13, 10 animals used)?
The value was 10.

What about the “The number of days and survivals after X-radiation 14 (days)” value ([1]; pre-administration 100 µg/day s.c., 14 days from 2 days before irradiation, day 14, 10 animals used) of the same molecule?
Its value is 10.

And the “The number of days and survivals after X-radiation 15 (days)” value ([1]; pre-administration 100 µg/day s.c., 14 days from 2 days before irradiation, day 15, 10 animals used)?
Its value is 10.

And the “The number of days and survivals after X-radiation 16 (days)” value ([1]; pre-administration 100 µg/day s.c., 14 days from 2 days before irradiation, day 16, 10 animals used)?
Its value is 10.

What about the “The number of days and survivals after X-radiation 17 (days)” value ([1]; pre-administration 100 µg/day s.c., 14 days from 2 days before irradiation, day 17, 10 animals used) of the same molecule?
The value was 10.

What about the “The number of days and survivals after X-radiation 18 (days)” value ([1]; pre-administration 100 µg/day s.c., 14 days from 2 days before irradiation, day 18, 10 animals used) of the same molecule?
The value was 10.

What about the “The number of days and survivals after X-radiation 19 (days)” value ([1]; pre-administration 100 µg/day s.c., 14 days from 2 days before irradiation, day 19, 10 animals used) of the same molecule?
Its value is 10.

And the “The number of days and survivals after X-radiation 30 (days)” value ([1]; pre-administration 100 µg/day s.c., 14 days from 2 days before irradiation, day 30, 10 animals used)?
Its value is 10.

And the “body weight (g) [Mean ± S.D.]” value ([2]; 1 day after irradiation)?
Its value is 27.8±1.5 (15) g.

What about the “body weight (g) [Mean ± S.D.]” value ([2]; 3 days after irradiation) of the same molecule?
Its value is 27.7±1.1 (15) g.

What about the “body weight (g) [Mean ± S.D.]” value ([2]; 5 days after irradiation) of the same molecule?
The value was 27.9±1.1 (15) g.

What about the “body weight (g) [Mean ± S.D.]” value ([2]; 7 days after irradiation) of the same molecule?
The value was 28.8±1.2 (10) g.

And the “body weight (g) [Mean ± S.D.]” value ([2]; 9 days after irradiation)?
The value was 29.8±1.0 (10) g.

And the “body weight (g) [Mean ± S.D.]” value ([2]; 11 days after irradiation)?
The value was 30.2±0.9 (10) g.

And the “body weight (g) [Mean ± S.D.]” value ([2]; 13 days after irradiation)?
Its value is 29.6±0.7 (10) g.

What about the “body weight (g) [Mean ± S.D.]” value ([2]; 15 days after irradiation) of the same molecule?
Its value is 28.3±0.8 (10) g.

What about the “body weight (g) [Mean ± S.D.]” value ([2]; 17 days after irradiation) of the same molecule?
The value was 28.2±1.0 (10) g.

What about the “body weight (g) [Mean ± S.D.]” value ([2]; 19 days after irradiation) of the same molecule?
Its value is 29.1±0.8 (10) g.

What about the “body weight (g) [Mean ± S.D.]” value ([2]; 29 days after irradiation) of the same molecule?
Its value is 28.5±1.4 (10) g.

What about the “body weight versus control group” value ([2]; 600R X-rays, summary of Table 5) of the same molecule?
The value was “evidently weighed more than the control group”.
